Laboratory results taken from ChEMBL document CHEMBL1909294, “Translating clinical findings into knowledge in drug safety evaluation--drug induced liver injury prediction system (DILIps)” (PLoS Comput Biol, 2011).

Columns and labels:
Hepatotoxicity [1] = tested on: Hepatotoxicity;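 for HepSE Combined Scores: combined hepatic side effect score as listed in the training data of the Drug Induced Liver Injury Prediction System (DILIps)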;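 for HepSE bilirubinemia: bilirubinemia hepatic side effect score drawn from the DILIps training data, a prediction system for drug-induced liver injury; call rule not given here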;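 for HepSE cholelithiasis: hepatic side effect score for cholelithiasis, drawn from the DILIps training data for predicting drug-induced liver injury; call rule not given here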;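 for HepSE hepatomegaly: hepatic side effect score for hepatomegaly, taken from the training set of the DILIps drug-induced liver injury prediction system; call rule not given here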;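 for HepSE jaundice: Jaundice-related hepatic side-effect score drawn from the training data of the DILIps (drug-induced liver injury prediction system); call rule not given here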; for HepSE liver disease: call rule not given here;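 for HepSE liver function tests abnormal: hepatic side effect score taken from the DILIps (drug-induced liver injury prediction system) training data, here covering abnormal liver function test findings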
Hepatotoxicity [2] = tested on: Hepatotoxicity; remark: listed apart in the source;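 for HepSE Combined Scores: combined hepatic side effect score as listed in the training data of the Drug Induced Liver Injury Prediction System (DILIps)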;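 for HepSE bilirubinemia: bilirubinemia hepatic side effect score drawn from the DILIps training data, a prediction system for drug-induced liver injury; call rule not given here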;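 for HepSE cholelithiasis: hepatic side effect score for cholelithiasis, drawn from the DILIps training data for predicting drug-induced liver injury; call rule not given here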;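 for HepSE jaundice: Jaundice-related hepatic side-effect score drawn from the training data of the DILIps (drug-induced liver injury prediction system); call rule not given here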; for HepSE liver disease: call rule not given here;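 for HepSE liver function tests abnormal: hepatic side effect score taken from the DILIps (drug-induced liver injury prediction system) training data, here covering abnormal liver function test findings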
Hepatotoxicity [3] = tested on: Hepatotoxicity; remark: listed apart in the source;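 for HepSE Combined Scores: combined hepatic side effect score as listed in the training data of the Drug Induced Liver Injury Prediction System (DILIps)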;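 for HepSE bilirubinemia: bilirubinemia hepatic side effect score drawn from the DILIps training data, a prediction system for drug-induced liver injury; call rule not given here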;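 for HepSE cholelithiasis: hepatic side effect score for cholelithiasis, drawn from the DILIps training data for predicting drug-induced liver injury; call rule not given here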;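 for HepSE jaundice: Jaundice-related hepatic side-effect score drawn from the training data of the DILIps (drug-induced liver injury prediction system); call rule not given here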; for HepSE liver disease: call rule not given here;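 for HepSE liver function tests abnormal: hepatic side effect score taken from the DILIps (drug-induced liver injury prediction system) training data, here covering abnormal liver function test findings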
Hepatotoxicity [4] = tested on: Hepatotoxicity; remark: listed apart in the source;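 for HepSE Combined Scores: combined hepatic side effect score as listed in the training data of the Drug Induced Liver Injury Prediction System (DILIps)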;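 for HepSE bilirubinemia: bilirubinemia hepatic side effect score drawn from the DILIps training data, a prediction system for drug-induced liver injury; call rule not given here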;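 for HepSE cholelithiasis: hepatic side effect score for cholelithiasis, drawn from the DILIps training data for predicting drug-induced liver injury; call rule not given here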;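 for HepSE jaundice: Jaundice-related hepatic side-effect score drawn from the training data of the DILIps (drug-induced liver injury prediction system); call rule not given here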; for HepSE liver disease: call rule not given here;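 for HepSE liver function tests abnormal: hepatic side effect score taken from the DILIps (drug-induced liver injury prediction system) training data, here covering abnormal liver function test findings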
Hepatotoxicity [5] = tested on: Hepatotoxicity; remark: listed apart in the source; for HepSE liver disease: call rule not given here
Hepatotoxicity [6] = tested on: Hepatotoxicity; remark: listed apart in the source; for HepSE liver disease: call rule not given here
Hepatotoxicity [7] = tested on: Hepatotoxicity; remark: listed apart in the source
Hepatotoxicity [8] = tested on: Hepatotoxicity; remark: listed apart in the source
Hepatotoxicity [9] = tested on: Hepatotoxicity; remark: listed apart in the source
Hepatotoxicity [10] = tested on: Hepatotoxicity; remark: listed apart in the source
Hepatotoxicity [11] = tested on: Hepatotoxicity; remark: listed apart in the source
Hepatotoxicity [12] = tested on: Hepatotoxicity; remark: listed apart in the source
Hepatotoxicity [13] = tested on: Hepatotoxicity; remark: listed apart in the source
Hepatotoxicity [14] = tested on: Hepatotoxicity; remark: listed apart in the source

| Structure (SMILES) | HepSE_liver function tests abnormal (Hepatotoxicity [1]) | HepSE_cholelithiasis (Hepatotoxicity [2]) | HepSE_Combined Scores (Hepatotoxicity [3]) | HepSE_jaundice (Hepatotoxicity [4]) | HepSE_bilirubinemia (Hepatotoxicity [5]) | HepSE_liver disease (Hepatotoxicity [6]) | HepSE_hepatomegaly (Hepatotoxicity [7]) | HepSE_cholecystitis (Hepatotoxicity [8]) | HepSE_hepatic necrosis (Hepatotoxicity [9]) | HepSE_hepatitis (Hepatotoxicity [10]) | HepSE_liver fatty (Hepatotoxicity [11]) | HepSE_elevated liver function tests (Hepatotoxicity [12]) | HepSE_cirrhosis (Hepatotoxicity [13]) | HepSE_hepatic failure (Hepatotoxicity [14]) | further results |
| --- | --- | --- | --- | --- | --- | --- | --- | --- | --- | --- | --- | --- | --- | --- | --- |
| NNCCc1ccccc1 [PHENELZINE] |  |  |  |  |  |  |  |  |  |  |  |  |  |  | HepSE_liver function tests abnormal (Hepatotoxicity [1]; Liver): 0; HepSE_cholelithiasis (Hepatotoxicity [2]; Liver): 0; HepSE_Combined Scores (Hepatotoxicity [3]; Liver): 1; HepSE_jaundice (Hepatotoxicity [4]; Liver): 1; HepSE_bilirubinemia (Hepatotoxicity [5]; Liver): 0; HepSE_liver disease (Hepatotoxicity [6]; Liver): 0; HepSE_hepatomegaly (Hepatotoxicity [7]; Liver): 0; HepSE_cholecystitis (Hepatotoxicity [8]; Liver): 0; HepSE_hepatic necrosis (Hepatotoxicity [9]; Liver): 0; HepSE_hepatitis (Hepatotoxicity [10]; Liver): 0; HepSE_liver fatty (Hepatotoxicity [11]; Liver): 0; HepSE_elevated liver function tests (Hepatotoxicity [12]; Liver): 0; HepSE_cirrhosis (Hepatotoxicity [13]; Liver): 0; HepSE_hepatic failure (Hepatotoxicity [14]; Liver): 0 |
| CC(COc1ccccc1)N(CCCl)Cc1ccccc1 (configuration not stated) [PHENOXYBENZAMINE] | 0 | 0 | 0 | 0 | 0 | 0 | 0 | 0 | 0 | 0 | 0 | 0 | 0 | 0 |  |
| CC(C)(N)Cc1ccccc1 [PHENTERMINE] | 0 | 0 | 0 | 0 | 0 | 0 | 0 | 0 | 0 | 0 | 0 | 0 | 0 | 0 |  |
| Cc1ccc(N(CC2=NCCN2)c2cccc(O)c2)cc1 [PHENTOLAMINE] | 0 | 0 | 0 | 0 | 0 | 0 | 0 | 0 | 0 | 0 | 0 | 0 | 0 | 0 |  |
| O=C1NC(=O)C(c2ccccc2)(c2ccccc2)N1 [PHENYTOIN] |  |  |  |  |  |  |  |  |  |  |  |  |  |  | HepSE_liver function tests abnormal (Hepatotoxicity [1]; Liver): 0; HepSE_cholelithiasis (Hepatotoxicity [2]; Liver): 0; HepSE_Combined Scores (Hepatotoxicity [3]; Liver): 1; HepSE_jaundice (Hepatotoxicity [4]; Liver): 0; HepSE_bilirubinemia (Hepatotoxicity [5]; Liver): 0; HepSE_liver disease (Hepatotoxicity [6]; Liver): 0; HepSE_hepatomegaly (Hepatotoxicity [7]; Liver): 0; HepSE_cholecystitis (Hepatotoxicity [8]; Liver): 0; HepSE_hepatic necrosis (Hepatotoxicity [9]; Liver): 0; HepSE_hepatitis (Hepatotoxicity [10]; Liver): 1; HepSE_liver fatty (Hepatotoxicity [11]; Liver): 0; HepSE_elevated liver function tests (Hepatotoxicity [12]; Liver): 0; HepSE_cirrhosis (Hepatotoxicity [13]; Liver): 0; HepSE_hepatic failure (Hepatotoxicity [14]; Liver): 0 |
| O=P(O)(O)O [PHOSPHORIC ACID] |  |  |  |  |  |  |  |  |  |  |  |  |  |  | HepSE_liver function tests abnormal (Hepatotoxicity [1]; Liver): 0; HepSE_cholelithiasis (Hepatotoxicity [2]; Liver): 0; HepSE_Combined Scores (Hepatotoxicity [3]; Liver): 0; HepSE_jaundice (Hepatotoxicity [4]; Liver): 0; HepSE_bilirubinemia (Hepatotoxicity [5]; Liver): 0; HepSE_liver disease (Hepatotoxicity [6]; Liver): 0; HepSE_hepatomegaly (Hepatotoxicity [7]; Liver): 0; HepSE_cholecystitis (Hepatotoxicity [8]; Liver): 0; HepSE_hepatic necrosis (Hepatotoxicity [9]; Liver): 0; HepSE_hepatitis (Hepatotoxicity [10]; Liver): 0; HepSE_liver fatty (Hepatotoxicity [11]; Liver): 0; HepSE_elevated liver function tests (Hepatotoxicity [12]; Liver): 0; HepSE_cirrhosis (Hepatotoxicity [13]; Liver): 0; HepSE_hepatic failure (Hepatotoxicity [14]; Liver): 0 |
| CC1=C(C/C=C(\C)CCC[C@H](C)CCC[C@H](C)CCCC(C)C)C(=O)c2ccccc2C1=O [PHYTONADIONE] | 0 | 0 | 1 | 0 | 1 | 0 | 0 | 0 | 0 | 0 | 0 | 0 | 0 | 0 |  |
| CC[C@@H]1C(=O)OC[C@@H]1Cc1cncn1C [PILOCARPINE] | 1 | 1 | 4 | 0 | 1 | 0 | 0 | 0 | 0 | 1 | 0 | 0 | 0 | 0 |  |
| CC[C@@H]1/C=C(\C)C[C@H](C)C[C@H](OC)[C@H]2O[C@@](O)(C(=O)C(=O)N3CCCC[C@H]3C(=O)O[C@H](/C(C)=C/[C@@H]3CC[C@H](Cl)[C@H](OC)C3)[C@H](C)[C@@H](O)CC1=O)[C@H](C)C[C@@H]2OC [PIMECROLIMUS] | 0 | 0 | 0 | 0 | 0 | 0 | 0 | 0 | 0 | 0 | 0 | 0 | 0 | 0 |  |
| O=c1[nH]c2ccccc2n1C1CCN(CCCC(c2ccc(F)cc2)c2ccc(F)cc2)CC1 [PIMOZIDE] | 0 | 0 | 0 | 0 | 0 | 0 | 0 | 0 | 0 | 0 | 0 | 0 | 0 | 0 |  |
| COc1cc(Br)c(C[N+]2(CCOCCC3CCC4CC3C4(C)C)CCOCC2)cc1OC.[Br-] (configuration not stated) [PINAVERIUM BROMIDE] |  |  |  |  |  |  |  |  |  |  |  |  |  |  | HepSE_liver function tests abnormal (Hepatotoxicity [1]; Liver): 0; HepSE_cholelithiasis (Hepatotoxicity [2]; Liver): 0; HepSE_Combined Scores (Hepatotoxicity [3]; Liver): 0; HepSE_jaundice (Hepatotoxicity [4]; Liver): 0; HepSE_bilirubinemia (Hepatotoxicity [5]; Liver): 0; HepSE_liver disease (Hepatotoxicity [6]; Liver): 0; HepSE_hepatomegaly (Hepatotoxicity [7]; Liver): 0; HepSE_cholecystitis (Hepatotoxicity [8]; Liver): 0; HepSE_hepatic necrosis (Hepatotoxicity [9]; Liver): 0; HepSE_hepatitis (Hepatotoxicity [10]; Liver): 0; HepSE_liver fatty (Hepatotoxicity [11]; Liver): 0; HepSE_elevated liver function tests (Hepatotoxicity [12]; Liver): 0; HepSE_cirrhosis (Hepatotoxicity [13]; Liver): 0; HepSE_hepatic failure (Hepatotoxicity [14]; Liver): 0 |
| CC(C)NCC(O)COc1cccc2[nH]ccc12 (configuration not stated) [PINDOLOL] | 0 | 0 | 0 | 0 | 0 | 0 | 0 | 0 | 0 | 0 | 0 | 0 | 0 | 0 |  |
| CCc1ccc(CCOc2ccc(CC3SC(=O)NC3=O)cc2)nc1 (configuration not stated) [PIOGLITAZONE] | 1 | 0 | 3 | 0 | 0 | 0 | 0 | 0 | 0 | 1 | 0 | 0 | 0 | 1 |  |
| CCN1CCN(C(=O)N[C@@H](C(=O)N[C@@H]2C(=O)N3[C@@H]2SC(C)(C)[C@@H]3C(=O)O)c2ccccc2)C(=O)C1=O [PIPERACILLIN] | 0 | 0 | 3 | 0 | 1 | 1 | 0 | 0 | 0 | 1 | 0 | 0 | 0 | 0 |  |
| CN(C)S(=O)(=O)c1ccc2c(c1)N(CCCN1CCC(CCO)CC1)c1ccccc1S2 [PIPOTIAZINE] | 0 | 0 | 1 | 1 | 0 | 0 | 0 | 0 | 0 | 0 | 0 | 0 | 0 | 0 |  |
| CC(C)(C)NCC(O)c1ccc(O)c(CO)n1 (configuration not stated) [PIRBUTEROL] | 0 | 0 | 0 | 0 | 0 | 0 | 0 | 0 | 0 | 0 | 0 | 0 | 0 | 0 |  |
| CN1CCC(=C2c3ccccc3CCc3sccc32)CC1 [PIZOTYLINE] | 0 | 0 | 0 | 0 | 0 | 0 | 0 | 0 | 0 | 0 | 0 | 0 | 0 | 0 |  |
| COc1cc([C@@H]2c3cc4c(cc3[C@H](O)[C@H]3COC(=O)[C@H]23)OCO4)cc(OC)c1OC [PODOFILOX] | 0 | 0 | 0 | 0 | 0 | 0 | 0 | 0 | 0 | 0 | 0 | 0 | 0 | 0 |  |
